Laboratory results taken from ChEMBL document CHEMBL2440073, “Antimalarial activity of compounds comprising a primary benzene sulfonamide fragment” (Bioorg Med Chem Lett, 2013).

Legend:
Plasmodium falciparum [1] = test: Antimalarial activity against ring stage of chloroquine-sensitive Plasmodium falciparum 3D7 infected in erythrocytes assessed as [3H]-hypoxanthine incorporation after 48 hrs by liquid scintillation counting analysis; type: functional, organism-based
[2] = Selectivity index, ratio of IC50 for human NFF cells to IC50 for Plasmodium falciparum; type: toxicity, cell-based; conditions: NFF cells (versus Plasmodium falciparum), read-out: Ratio IC50
NFF = test: Cytotoxicity against human NFF cells after 3 days by SRB assay; type: cell-based; conditions: 72 h
Plasmodium falciparum [3] = test: Antimalarial activity against ring stage of chloroquine-resistant Plasmodium falciparum Dd2 infected in erythrocytes assessed as [3H]-hypoxanthine incorporation after 48 hrs by liquid scintillation counting analysis; type: functional, organism-based

| SMILES | IC50 (Plasmodium falciparum [1]) [µM] | selectivity ratio [2] | IC50 (NFF) [µM] | IC50 (Plasmodium falciparum [3]) [µM] |
| --- | --- | --- | --- | --- |
| CC(=O)OC[C@H]1O[C@@H](SCc2nnn(-c3ccc(S(N)(=O)=O)cc3)c2I)[C@H](OC(C)=O)[C@@H](OC(C)=O)[C@@H]1OC(C)=O | 0.9 | ≥ 40 | 51.1 | 1.3 |
| CC(=O)OC[C@H]1O[C@@H](SCc2nnn(-c3ccc(S(N)(=O)=O)cc3)c2I)[C@H](OC(C)=O)[C@@H](OC(C)=O)[C@H]1OC(C)=O | 1.4 |  | > 100 | 4.1 |
| CC(=O)OC[C@H]1O[C@@H](S(=O)(=O)Cc2nnn(-c3ccc(S(N)(=O)=O)cc3)c2I)[C@H](OC(C)=O)[C@@H](OC(C)=O)[C@@H]1OC(C)=O | 5.3 |  | > 100 | 7.8 |
| CC(=O)OC[C@H]1O[C@@H](S(=O)(=O)Cc2nnn(-c3ccc(S(N)(=O)=O)cc3)c2I)[C@H](OC(C)=O)[C@@H](OC(C)=O)[C@@H]1O[C@H]1O[C@H](COC(C)=O)[C@@H](OC(C)=O)[C@H](OC(C)=O)[C@H]1OC(C)=O | 2.3 |  | > 100 | 2.4 |
| CC(=O)OC[C@H]1O[C@@H](S(=O)(=O)Cc2cn(-c3ccc(S(N)(=O)=O)cc3)nn2)[C@H](OC(C)=O)[C@@H](OC(C)=O)[C@@H]1O[C@H]1O[C@H](COC(C)=O)[C@@H](OC(C)=O)[C@H](OC(C)=O)[C@H]1OC(C)=O | 20.7 |  |  | 14.7 |
| NS(=O)(=O)c1ccc(-n2nnc(CS[C@@H]3O[C@H](CO)[C@@H](O)[C@H](O)[C@H]3O)c2I)cc1 | 1 | ≥ 40 | > 100 | 1.9 |
| NS(=O)(=O)c1ccc(-n2nnc(CS(=O)(=O)[C@@H]3O[C@H](CO)[C@@H](O)[C@H](O)[C@H]3O)c2I)cc1 | 28.6 |  |  | > 50 |
| CC(=O)OC[C@H]1O[C@@H](S(=O)(=O)Cc2nnn(-c3ccccc3)c2I)[C@H](OC(C)=O)[C@@H](OC(C)=O)[C@@H]1OC(C)=O | 4.7 |  |  | 3.4 |
| CC(=O)OC[C@H]1O[C@@H](OCc2cn(-c3ccccc3)nn2)[C@H](OC(C)=O)[C@@H](OC(C)=O)[C@@H]1OC(C)=O | > 50 |  |  | > 50 |
| O=S(=O)(Cc1nnn(-c2ccccc2)c1I)[C@@H]1O[C@H](CO)[C@@H](O)[C@H](O)[C@H]1O | 3.8 |  |  | 3.4 |
| CC(=O)OC[C@H]1O[C@@H](SCc2cn(-c3ccccc3)nn2)[C@H](OC(C)=O)[C@@H](OC(C)=O)[C@@H]1OC(C)=O | > 50 |  |  | > 50 |
| OC[C@H]1O[C@@H](SCc2cn(-c3ccccc3)nn2)[C@H](O)[C@@H](O)[C@@H]1O | > 50 |  |  | > 50 |
| CC(=O)OC[C@H]1O[C@@H](S(=O)(=O)Cc2cn(-c3ccccc3)nn2)[C@H](OC(C)=O)[C@@H](OC(C)=O)[C@@H]1OC(C)=O | > 50 |  |  | > 50 |
| O=S(=O)(Cc1cn(-c2ccccc2)nn1)[C@@H]1O[C@H](CO)[C@@H](O)[C@H](O)[C@H]1O | > 50 |  |  | > 50 |
| COC(=O)[C@H]1O[C@@H](SCc2nnn(-c3ccc(S(N)(=O)=O)cc3)c2I)[C@H](OC(C)=O)[C@@H](OC(C)=O)[C@@H]1OC(C)=O | 2.1 |  | > 100 | 6 |
| CC(=O)OC[C@H]1O[C@@H](OCc2nnn(-c3ccc(S(N)(=O)=O)cc3)c2I)[C@H](OC(C)=O)[C@@H](OC(C)=O)[C@@H]1OC(C)=O | 2.8 |  | > 100 | 2.6 |
| CC(=O)OC[C@H]1O[C@@H](SCc2nnn(-c3ccccc3)c2I)[C@H](OC(C)=O)[C@@H](OC(C)=O)[C@@H]1OC(C)=O | 4.6 |  |  | 4.8 |
| OC[C@H]1O[C@@H](SCc2nnn(-c3ccccc3)c2I)[C@H](O)[C@@H](O)[C@@H]1O | 4.9 |  |  | 4.4 |
| CC(=O)OC[C@H]1O[C@@H](OCc2nnn(-c3ccccc3)c2I)[C@H](OC(C)=O)[C@@H](OC(C)=O)[C@@H]1OC(C)=O | 10.6 |  |  | 9.4 |
| CC(=O)OC[C@H]1O[C@@H](OCc2cn(-c3ccc(S(N)(=O)=O)cc3)nn2)[C@H](OC(C)=O)[C@@H](OC(C)=O)[C@@H]1OC(C)=O | 9.7 |  |  | 11.7 |
| CC(=O)OC[C@H]1O[C@@H](S(=O)(=O)Cc2cn(-c3ccc(S(N)(=O)=O)cc3)nn2)[C@H](OC(C)=O)[C@@H](OC(C)=O)[C@@H]1OC(C)=O | > 50 |  |  | > 50 |
| NS(=O)(=O)c1ccc(-n2cc(CS[C@@H]3O[C@H](CO)[C@@H](O)[C@H](O)[C@H]3O)nn2)cc1 | > 50 |  |  | > 50 |
| NS(=O)(=O)c1ccc(-n2cc(CS(=O)(=O)[C@@H]3O[C@H](CO)[C@@H](O)[C@H](O)[C@H]3O)nn2)cc1 | > 50 |  |  | > 50 |
| CC(=O)OC[C@H]1O[C@@H](SCc2cn(-c3ccc(S(N)(=O)=O)cc3)nn2)[C@H](OC(C)=O)[C@@H](OC(C)=O)[C@@H]1OC(C)=O | 31 |  |  | > 25 |
| CCN(CC)CCCC(C)Nc1ccnc2cc(Cl)ccc12 (stereo not drawn) [CHLOROQUINE] |  |  | > 1000 |  |
